Test results taken from article PMC12216609, “Inhibitors of eIF1A-ribosome interaction unveil uORF-dependent regulation of translation initiation and antitumor and antiviral effects” (The EMBO Journal, 2025).
Values joined by “and” are separate entries in the source; they are usually repeats but may differ in a detail not shown here. Equal entries are not always repeated. Where two headings read alike, the source gives them in different places.

Columns and labels:
eIF1A without NTT = target: T1, eIF1A without NTT (Homo sapiens, UniProt P47813); assay: Fluorescence binding assay with NTT-truncated eIF1A; conditions: for fluorescence ratio, eIF1A Δ NTT: background-corrected, relative to DMSO or lowest 1Ai concentration, replicate columns
T1 construct: His-bdSUMO (cleaved yes); made in house; host or cells: E. coli (BL-21)

eIF1A without CTT = target: T2, eIF1A without CTT (Homo sapiens, UniProt P47813); format: binding; conditions: for fluorescence ratio, eIF1A Δ CTT: background-corrected, relative to DMSO or lowest 1Ai concentration, replicate columns
T2 construct: His-bdSUMO (cleaved yes); made in house; host or cells: E. coli (BL-21)

[1] = tested on: CUG/GUG vs AUG start codon luciferase reporters in HEK293T cells; assay: Near-cognate AUG starting codon fidelity reporter assay (GUG, CUG vs AUG); format: cell-based; conditions: for CUG vs AUG (%): CUG start codon reporter relative to AUG reporter (AUG = 100); for CUG vs AUG (%) / GUG vs AUG (%): compound at 20uM (summary head), single-experiment calculation; for GUG vs AUG (%): GUG start codon reporter relative to AUG reporter (AUG = 100); for average CUG and GUG / average CUG and GUG relative to DMSO / CUG Average / GUG Average: NUG experiment; for CUG Average: CUG vs AUG reporter; for GUG Average: GUG vs AUG reporter; for NUG (Final data, Fig. 1E): average CUG and GUG relative to DMSO, 20 µM overnight; for GUG vs AUG data (%) / GUG vs AUG (%) Average: compound at 20uM; for GUG vs AUG data (%): individual repeat; for GUG vs AUG (%) Average: summary average of repeats, DMSO control average […]
[2] = tested on: regulatory CUG of SARS-CoV-2 ORF7a 5'UTR in HEK293T cells; format: cell-based

T2 sequence (P47813 1-114 limits assumed): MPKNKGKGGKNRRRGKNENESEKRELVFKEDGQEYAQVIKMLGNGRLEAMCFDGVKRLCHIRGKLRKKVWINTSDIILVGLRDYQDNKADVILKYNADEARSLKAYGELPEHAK
T1 sequence (P47813 31-144 limits assumed): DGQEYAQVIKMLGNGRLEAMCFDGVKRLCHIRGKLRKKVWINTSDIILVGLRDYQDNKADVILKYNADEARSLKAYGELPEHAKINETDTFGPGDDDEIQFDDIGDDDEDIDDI

Q: `Cc1cc(-n2c(C)cc(-c3csc(N)n3)c2C)no1` [1Ai-6464] was tested. Which “fluorescence ratio, eIF1A Δ NTT” value (eIF1A without NTT; 1Ai conc. 0.25 uM) did it give?
A: 0.925 and 0.9309

Q: What about the “fluorescence ratio, eIF1A Δ NTT” value (eIF1A without NTT; 1Ai conc. 0.5 uM) of the same molecule?
A: 1.072 and 0.9557

Q: What about the “fluorescence ratio, eIF1A Δ NTT” value (eIF1A without NTT; 1Ai conc. 1 uM) of the same molecule?
A: 1.214 and 0.9982

Q: What about the “fluorescence ratio, eIF1A Δ NTT” value (eIF1A without NTT; 1Ai conc. 2 uM) of the same molecule?
A: 1.067 and 1.004

Q: What about the “fluorescence ratio, eIF1A Δ NTT” value (eIF1A without NTT; 1Ai conc. 4 uM) of the same molecule?
A: 1.128 and 0.9504

Q: And the “fluorescence ratio, eIF1A Δ NTT” value (eIF1A without NTT; 1Ai conc. 8 uM)?
A: 1.103 and 0.7642

Q: What about the “fluorescence ratio, eIF1A Δ NTT” value (eIF1A without NTT; 1Ai conc. 16 uM) of the same molecule?
A: 0.8611 and 0.7181

Q: What about the “fluorescence ratio, eIF1A Δ NTT” value (eIF1A without NTT; 1Ai conc. 32 uM) of the same molecule?
A: 0.7861 and 0.6206

Q: What about the “fluorescence ratio, eIF1A Δ NTT” value (eIF1A without NTT; 1Ai conc. 64 uM) of the same molecule?
A: 0.6389 and 0.5018

Q: And the “fluorescence ratio, eIF1A Δ NTT” value (eIF1A without NTT; 1Ai conc. 256 uM)?
A: 0.4333 and 0.2642

Q: What about the IC50 (eIF1A without NTT; eIF1A Δ NTT, from the titration data, read-out: IC50 (eIF1A Δ NTT titration block)) of the same molecule?
A: 37 µM

Q: What about the IC50 (eIF1A without NTT; summary table, fluorescence binding assay, read-out: IC50 concentration (µM), NTT truncation) of the same molecule?
A: 37 µM

Q: And the “fluorescence ratio, eIF1A Δ CTT” value (eIF1A without CTT; 1Ai conc. 0.25 uM)?
A: 0.827 and 0.948

Q: And the “fluorescence ratio, eIF1A Δ CTT” value (eIF1A without CTT; 1Ai conc. 0.5 uM)?
A: 0.8882 and 1.055

Q: And the “fluorescence ratio, eIF1A Δ CTT” value (eIF1A without CTT; 1Ai conc. 1 uM)?
A: 0.8515 and 1.0065

Q: What about the “fluorescence ratio, eIF1A Δ CTT” value (eIF1A without CTT; 1Ai conc. 2 uM) of the same molecule?
A: 0.8637 and 0.9317

Q: What about the “fluorescence ratio, eIF1A Δ CTT” value (eIF1A without CTT; 1Ai conc. 4 uM) of the same molecule?
A: 0.8683 and 0.9724

Q: What about the “fluorescence ratio, eIF1A Δ CTT” value (eIF1A without CTT; 1Ai conc. 8 uM) of the same molecule?
A: 0.6692 and 0.7821

Q: And the “fluorescence ratio, eIF1A Δ CTT” value (eIF1A without CTT; 1Ai conc. 16 uM)?
A: 0.7305 and 0.6862

Q: And the “fluorescence ratio, eIF1A Δ CTT” value (eIF1A without CTT; 1Ai conc. 32 uM)?
A: 0.608 and 0.5594

Q: What about the “fluorescence ratio, eIF1A Δ CTT” value (eIF1A without CTT; 1Ai conc. 64 uM) of the same molecule?
A: 0.4364 and 0.4829

Q: What about the “fluorescence ratio, eIF1A Δ CTT” value (eIF1A without CTT; 1Ai conc. 256 uM) of the same molecule?
A: 0.1547 and 0.1772

Q: What about the IC50 (eIF1A without CTT; eIF1A Δ CTT, from the titration data, read-out: IC50 (eIF1A Δ CTT titration block)) of the same molecule?
A: 35.4 µM

Q: What about the IC50 (eIF1A without CTT; summary table, fluorescence binding assay, read-out: IC50 concentration (µM), CTT truncation) of the same molecule?
A: 35.4 µM

Q: And the “CUG vs AUG (%)” value [1]?
A: 6.312%

Q: What about the “GUG vs AUG (%)” value [1] of the same molecule?
A: 1.439%

Q: And the “average CUG and GUG” value [1]?
A: 3.765

Q: And the “average CUG and GUG relative to DMSO” value [1]?
A: 0.8347

Q: And the “CUG Average” value [1]?
A: 6.092

Q: And the “GUG Average” value [1]?
A: 1.4368

Q: And the “NUG (Final data, Fig. 1E)” value [1]?
A: 0.835

Q: What about the “GUG vs AUG data (%)” value [1] of the same molecule?
A: 1.40% and 1.10% and 1.81% and 1.45%

Q: What about the “GUG vs AUG (%) Average” value [1] of the same molecule?
A: 1.44%

Q: Which “CUG vs AUG (%)” value [1] does the source give for `Cc1ccc(C)n1-c1cc([N+](=O)[O-])ccc1N1CCN(C(=O)c2ccccc2)CC1` [1Ai-9008] here?
A: 13.0714%

Q: And the “GUG vs AUG (%)” value [1]?
A: 3.675%

Q: What about the “average CUG and GUG” value [1] of the same molecule?
A: 8.448

Q: What about the “average CUG and GUG relative to DMSO” value [1] of the same molecule?
A: 1.873

Q: What about the “CUG Average” value [1] of the same molecule?
A: 12.6998

Q: And the “GUG Average” value [1]?
A: 4.196

Q: And the “NUG (Final data, Fig. 1E)” value [1]?
A: 1.873

Q: What about the “GUG vs AUG data (%)” value [1] of the same molecule?
A: 4.42% and 4.68% and 2.86% and 4.83%

Q: What about the “GUG vs AUG (%) Average” value [1] of the same molecule?
A: 4.20%

Q: And the “average (inverted)” value ([2]; normalized to DMSO = 1.000, mean of 3 reps)?
A: 0.875

Q: What about the “CUG/AUG ratio (Renilla/firefly)” value ([2]; overnight) of the same molecule?
A: decreased the CUG/AUG ratio to variable degrees

Q: What about the “FF CTG signal, mean of duplicates” value ([2]; reps 1-3) of the same molecule?
A: 19795.8 and 14760.8 and 12081.3

Q: And the “FF vs Rluc” value ([2]; reps 1-3)?
A: 47.590 and 44.537 and 48.991

Q: What about the “FF vs Rluc, inverted” value ([2]; reps 1-3) of the same molecule?
A: 0.021 and 0.022 and 0.020

Q: What about the “Rluc ATG signal, mean of duplicates” value ([2]; reps 1-3) of the same molecule?
A: 10881500 and 8214985 and 6662440

Q: And the “normalized to DMSO” value ([2]; reps 1-3, DMSO = 1)?
A: 0.864 and 0.923 and 0.839
